This note sets out measurements from patent publication US8519110B2, “mRNA cap analogs” (Board of Supervisors of Louisiana State University And …, priority 2008, dated 2013).

Where two headings read alike, the source gives them in different places.

The target of one test is eIF4E (Mus musculus, UniProt P63073). Nature of the test: Binding affinity of cap analogs to eIF4E by fluorescence titration. The note with it: equilibrium association constant; for Cap analog-eIF4E affinity (KAS): Table 3; for Cap analog/eIF4E affinity (KAS): 20 °C, pH 7.2, ionic strength 150 mM. Summed up: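 Cap analogue was titrated into 0.1 or 0.2 μM eIF4E at 20.0° C, in 50 mM HEPES/KOH pH 7.2 with 0.5 mM EDTA and 1 mM DTT, ionic strength 150 mM (KCl). Fluorescence quenching was read at excitation 280 or 295 nm and emission 337 nm, corrected for dilution and inner filter. Kas is a weighted average of 3–10 titration fits.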
Chain of eIF4E (P63073 28-217 limits assumed): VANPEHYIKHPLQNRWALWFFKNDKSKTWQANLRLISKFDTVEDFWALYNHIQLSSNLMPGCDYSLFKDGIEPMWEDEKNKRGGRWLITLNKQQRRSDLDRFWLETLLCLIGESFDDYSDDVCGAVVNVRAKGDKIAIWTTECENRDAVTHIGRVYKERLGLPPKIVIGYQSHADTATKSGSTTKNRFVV

For test [1], the system named is rabbit reticulocyte lysate system. Nature of the test: In vitro translation efficiency of capped luciferase mRNA with 31-base poly(A) tail, method II transcripts. The test is classed as biochemical. The note with it: for In vitro translational efficiency (method II): Table 3, relative to m^7GpppG-capped mRNA = 1.0; for Translation efficiency in comparison to m^7GpppG-LUC-(A)31 mRNA, Experiment No. 1: experiment 1; for Translation efficiency in comparison to m^7GpppG-LUC-(A)31 mRNA, Experiment No. 2: experiment 2; for Translation efficiency in comparison to m^7GpppG-LUC-(A)31 mRNA, Experiment No. 3: experiment 3; for Translation efficiency in comparison to m^7GpppG-LUC-(A)31 mRNA, Experiment No. 4: experiment 4; for Translation efficiency in comparison to m^7GpppG-LUC-(A)31 mRNA, Experiment No. 5: experiment 5; for Translation efficiency in comparison to m^7GpppG-LUC-(A)31 mRNA, Mean: mean of experiments. Summed up: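 Cap-analog-primed SP6 transcripts (β-globin 5′-UTR, firefly luciferase, 31-A tail; 0.5 mM cap analog, 0.1 mM GTP) were translated in nuclease-treated rabbit reticulocyte lysate for 60 min at 30° C at 0.25–4 μg/ml mRNA. Efficiency is the slope of luciferase activity versus mRNA concentration, relative to m^7GpppG-capped mRNA (1.0).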

Test [2] deals with cap-dependent translation of luciferase mRNA in reticulocyte lysate. The test can be described thus: Inhibition of cap-dependent translation in vitro by free cap analogs. The test is classed as biochemical, rabbit. As for the experimental part:
In vitro translation reactions were performed in 12.5 μl for 60 min at 30° C. under conditions favorable for cap-dependent translation. In some cases, the reaction mixture was incubated for 60 min at 30° C. prior to adding the dinucleotide cap analog (inhibitor) and m2^7,3′-OGppG-capped luciferase mRNA to start translation. In other cases, to analyze biological stability, the cap analog was incubated in the translation mixture for 60 min at 30° C. prior to adding the luciferase mRNA to start translation. A typical reaction mixture contained 56% reticulocyte lysate, the 20 “standard” amino acids (0.01 mM each), MgCl2 (1.2 mM), potassium acetate (170 mM), RiboLock Ribonuclease Inhibitor (0.32 U/μl), cap analog solution ( 1/10 of total reaction volume), and m2^7,3′-OGpppG-capped luciferase RNA. […] Reactions were performed with cap analog concentrations ranging from 0.12 to 100 μM. Luciferase activity was measured in a luminometer. […] The program OriginPro8 (OriginLab) was used for curve fitting with the equation qLUC=Z/(1+I/IC50)+N, where qLUC is the activity of luciferase synthesized in the presence of cap analog, Z is the activity of luciferase synthesized in the absence of cap analog, N is the activity of luciferase synthesized in a cap-independent manner, and I is the cap analog concentration.
Two type of experiments were carried out. In one set of experiments (condition A), a cap analog was added to the translation system together with luciferase mRNA. In the other set of experiments (condition B), the cap analog was incubated in the translation system for 60 min before addition of mRNA. […] There was a correlation between the resistance to hydrolysis by DcpS and the stability of analogs in the translation system.

Where [3] appears, read: Table 3, cap analog added together with mRNA, read-out: Inhibition of in vitro translation (IC50), condition A.
[4] abbreviates: Table 3, cap analog preincubated 60 min in lysate, read-out: Inhibition of in vitro translation (IC50), condition B.
The mark [5] stands for this setting: cap analog added together with luciferase mRNA, read-out: Inhibition of in vitro translation (IC50), condition A.
[6] abbreviates: cap analog incubated in translation system 60 min before addition of mRNA, read-out: Inhibition of in vitro translation (IC50), condition B.

Turning to `Cn1c[n+]([C@@H]2O[C@H](COP(=O)(O)OP(=O)(O)OP(=O)(O)OC[C@H]3O[C@@H](n4cnc5c(=O)[nH]c(N)nc54)[C@H](O)[C@@H]3O)[C@@H](O)[C@H]2O)c2nc(N)[nH]c(=O)c21` [m^7GpppG, m^7G(5′)ppp(5′)G, reference compound], on eIF4E, the “Cap analog-eIF4E affinity (KAS)” value came out at 9.4 ± 0.4 μM^−1 and the “Cap analog/eIF4E affinity (KAS)” value came to 9.4 ± 0.4 μM^−1. In test [1], the “In vitro translational efficiency (method II)” value was found to be 1.00; the “Translation efficiency in comparison to m^7GpppG-LUC-(A)31 mRNA, Experiment No. 1” value (from here on “Translation efficiency … Experiment No. 1”) stood at 1.00; the “Translation efficiency in comparison to m^7GpppG-LUC-(A)31 mRNA, Experiment No. 2” value (from here on “Translation efficiency … Experiment No. 2”) came out at 1.00; the “Translation efficiency in comparison to m^7GpppG-LUC-(A)31 mRNA, Experiment No. 3” value (from here on “Translation efficiency … Experiment No. 3”) was found to be 1.00. In test [1], the “Translation efficiency in comparison to m^7GpppG-LUC-(A)31 mRNA, Experiment No. 4” value came out at 1.00; the “Translation efficiency in comparison to m^7GpppG-LUC-(A)31 mRNA, Experiment No. 5” value is on record as 1.00; the “Translation efficiency in comparison to m^7GpppG-LUC-(A)31 mRNA, Mean” value (from here on “Translation efficiency in comparison … Mean”) was 1.00. Besides, the IC50 in test [2] (setting [3]) was determined as 8.3 ± 0.2 µM. The IC50 in test [2] (setting [4]) was 35.1 ± 10.8 µM. Moreover, the IC50 in test [2] (setting [5]) amounted to 8.3 ± 0.2 µM. Moreover, the IC50 in test [2] (setting [6]) was 35.1 ± 10.8 µM.
For m^7GppBH3pm^7G, the “Cap analog/eIF4E affinity (KAS)” value at eIF4E is on record as 11.1 ± 0.2 μM^−1. Also, in test [1], the “Translation efficiency in comparison to m^7GpppG-LUC-(A)31 mRNA, Experiment No. 5” value was determined as 3.56 and the “Translation efficiency in comparison … Mean” value amounted to 3.56. Further, in test [2] (setting [5]), the IC50 was 3 ± 0.1 µM. For the same compound, the IC50 in test [2] (setting [6]) was found to be 3 ± 0.2 µM.
Regarding `CO[C@@H]1[C@H](O)[C@@H](COP(=O)(O)OP(O)(=[Se])OP(=O)(O)OC[C@H]2O[C@@H](n3cnc4c(=O)[nH]c(N)nc43)[C@H](O)[C@@H]2O)O[C@H]1n1c[n+](C)c2c(=O)[nH]c(N)nc21` (single isomer, unassigned) [m2^7,2′-OGppSepG (D2), m2^7,2′-OGppSepG], at eIF4E, the “Cap analog-eIF4E affinity (KAS)” value turned out to be 19.0 ± 0.5 μM^−1. In test [1], the “In vitro translational efficiency (method II)” value is 2.31 ± 0.22; the “Translation efficiency … Experiment No. 1” value worked out at 2.53; the “Translation efficiency … Experiment No. 2” value turned out to be 2.31; the “Translation efficiency … Experiment No. 3” value was 2.09. For the same compound, in test [1], the “Translation efficiency in comparison … Mean” value stood at 2.31. For the same compound, the half-inhibitory concentration (IC50) in test [2] (setting [3]) was determined as 3.9 ± 0.5 µM. The IC50 in test [2] (setting [4]) amounted to 11.4 ± 7.2 µM.
Regarding `CO[C@@H]1[C@H](O)[C@@H](COP(=O)(O)OP(O)(=[Se])OP(=O)(O)OC[C@H]2O[C@@H](n3cnc4c(=O)[nH]c(N)nc43)[C@H](O)[C@@H]2O)O[C@H]1n1c[n+](C)c2c(=O)[nH]c(N)nc21` (single isomer, unassigned) [m2^7,2′-OGppSepG (D1), m2^7,2′-OGppSepG], the “Cap analog-eIF4E affinity (KAS)” value at eIF4E was determined as 38.5 ± 0.7 μM^−1. In addition, in test [1], the “In vitro translational efficiency (method II)” value is reported as 2.24 ± 0.28; the “Translation efficiency … Experiment No. 1” value stood at 2.05; the “Translation efficiency … Experiment No. 2” value came out at 2.09; the “Translation efficiency … Experiment No. 3” value is on record as 2.16. Further, in test [1], the “Translation efficiency in comparison to m^7GpppG-LUC-(A)31 mRNA, Experiment No. 4” value is on record as 2.65 and the “Translation efficiency in comparison … Mean” value stood at 2.24. For the same compound, the IC50 in test [2] (setting [3]) amounted to 8.4 ± 1.4 µM. Besides, the IC50 in test [2] (setting [4]) amounted to 14.7 ± 1.6 µM.
